Results from PubChem BioAssay AID1963980 (Molecular Pharmacology Branch, DTP, NCI, 2024).

Test system: 475296-252-R-J1-PDC spheroid viability
Assay: Anticancer human tumor 475296-252-R-J1-PDC patient-derived rectal carcinoma cell line growth inhibition [PI3K]
Conditions: spheroids with HUVEC and MSC; for IC50: curve of first compound; for viability, T/C: stronger effect = lower value; active = viability on the fitted dose curve at most 10% of control; inactive = the rest
Outline: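 Viability of mixed-cell spheroids was determined after exposure to pairwise combinations, one partner being inavolisib, alpelisib, duvelisib or copanlisib. Highest tested concentration matched clinical Cmax where known and 10 microM where not, descending in half-log steps.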

[1] = second compound 0.00316 µM, first compound 0.0316 µM
[2] = second compound 0.00316 µM, first compound 0.1 µM
[3] = second compound 0.00316 µM, first compound 0.316 µM
[4] = second compound 0.00316 µM, first compound 1 µM
[5] = second compound 0.00316 µM, first compound 3.16 µM
[6] = second compound 0.00316 µM, first compound 10 µM
[7] = second compound 0.01 µM, first compound 0.0316 µM
[8] = second compound 0.01 µM, first compound 0.1 µM
[9] = second compound 0.01 µM, first compound 0.316 µM
[10] = second compound 0.01 µM, first compound 1 µM
[11] = second compound 0.01 µM, first compound 3.16 µM
[12] = second compound 0.01 µM, first compound 10 µM
[13] = second compound 0.0316 µM, first compound 0.0316 µM
[14] = second compound 0.0316 µM, first compound 0.1 µM
[15] = second compound 0.0316 µM, first compound 0.316 µM
[16] = second compound 0.0316 µM, first compound 1 µM
[17] = second compound 0.0316 µM, first compound 3.16 µM
[18] = second compound 0.0316 µM, first compound 10 µM
[19] = second compound 0.1 µM, first compound 0.0316 µM
[20] = second compound 0.1 µM, first compound 0.1 µM
[21] = second compound 0.1 µM, first compound 0.316 µM
[22] = second compound 0.1 µM, first compound 1 µM
[23] = second compound 0.1 µM, first compound 3.16 µM
[24] = second compound 0.1 µM, first compound 10 µM
[25] = second compound 0.316 µM, first compound 0.0316 µM
[26] = second compound 0.316 µM, first compound 0.1 µM
[27] = second compound 0.316 µM, first compound 0.316 µM
[28] = second compound 0.316 µM, first compound 1 µM
[29] = second compound 0.316 µM, first compound 3.16 µM
[30] = second compound 0.316 µM, first compound 10 µM
[31] = second compound 1 µM, first compound 0.0316 µM
[32] = second compound 1 µM, first compound 0.1 µM
[33] = second compound 1 µM, first compound 0.316 µM
[34] = second compound 1 µM, first compound 1 µM
[35] = second compound 1 µM, first compound 3.16 µM
[36] = second compound 1 µM, first compound 10 µM
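Also: spheroids exposed to agents for seven days before readout.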

C#Cc1c(F)ccc2cc(O)cc(-c3ncc4c(N5CC6CCC(C5)N6)nc(OCC56CCCN5CC(F)C6)nc4c3F)c12 (stereo not drawn) + COc1c(OCCCN2CCOCC2)ccc2c3n(c(=NC(=O)c4cnc(N)nc4)nc12)CCN3
inactive: viability, T/C [1] 85.9% | viability, T/C [2] 87.5% | viability, T/C [3] 79.7% | viability, T/C [4] 75.3% | viability, T/C [5] 59.2% | viability, T/C [6] 47.8% | viability, T/C [7] 89.5% | viability, T/C [8] 90.8% | viability, T/C [9] 68% | viability, T/C [10] 57.2% | viability, T/C [11] 48.9% | viability, T/C [12] 39.9% | viability, T/C [13] 80.6% | viability, T/C [14] 76.4% | viability, T/C [15] 65.4% | viability, T/C [16] 46.1% | viability, T/C [17] 31.1% | viability, T/C [18] 14.3% | viability, T/C [19] 67% | viability, T/C [20] 68.9% | viability, T/C [21] 40.7% | viability, T/C [22] 23% | viability, T/C [25] 64.5% | viability, T/C [26] 57.4% | viability, T/C [27] 28.3% | viability, T/C [31] 45.9% | viability, T/C [32] 34.2% | viability, T/C [33] 21.3%
2.07 µM: IC50 (second compound 0.01 µM)
0.228 µM: IC50 (second compound 0.1 µM)
< 0.0316 µM: IC50 (second compound 1 µM)
7.99 µM: IC50 (second compound 0.00316 µM)
0.134 µM: IC50 (second compound 0.316 µM)
0.875 µM: IC50 (second compound 0.0316 µM)
active: viability, T/C [23] 8.13% | viability, T/C [24] 3.98% | viability, T/C [28] 7.5% | viability, T/C [29] 3.69% | viability, T/C [30] 2.51% | viability, T/C [34] 6.91% | viability, T/C [35] 5.05% | viability, T/C [36] 4.55%

C=CC(=O)N1CCN(c2nc(=O)n(-c3c(C)ccnc3C(C)C)c3nc(-c4c(O)cccc4F)c(F)cc23)C(C)C1 (stereo not drawn) + COc1c(OCCCN2CCOCC2)ccc2c3n(c(=NC(=O)c4cnc(N)nc4)nc12)CCN3
> 10 µM: IC50 (second compound 0.00316 µM) | IC50 (second compound 0.01 µM) | IC50 (second compound 0.0316 µM) | IC50 (second compound 0.1 µM) | IC50 (second compound 0.316 µM) | IC50 (second compound 1 µM)
inactive: viability, T/C [1] 102% | viability, T/C [2] 101% | viability, T/C [3] 101% | viability, T/C [4] 99.4% | viability, T/C [5] 110% | viability, T/C [6] 106% | viability, T/C [7] 94.3% | viability, T/C [8] 99.2% | viability, T/C [9] 93.8% | viability, T/C [10] 105% | viability, T/C [11] 106% | viability, T/C [12] 98.1% | viability, T/C [13] 94.4% | viability, T/C [14] 91.1% | viability, T/C [15] 91.2% | viability, T/C [16] 98.7% | viability, T/C [17] 91.4% | viability, T/C [18] 108% | viability, T/C [19] 91.6% | viability, T/C [20] 85.5% | viability, T/C [21] 84% | viability, T/C [22] 97.8% | viability, T/C [23] 86% | viability, T/C [24] 87.1% | viability, T/C [25] 75.7% | viability, T/C [26] 78.3% | viability, T/C [27] 64.9% | viability, T/C [28] 83.6% | viability, T/C [29] 77.5% | viability, T/C [30] 81% | viability, T/C [31] 58.2% | viability, T/C [32] 65.7% | viability, T/C [33] 63.7% | viability, T/C [34] 63.9% | viability, T/C [35] 58.1% | viability, T/C [36] 69.8%

CC(Cn1ccc(-c2ccc(C#N)c(Cl)c2)n1)NC(=O)c1cc(C(C)O)[nH]n1 (stereo not drawn) + COc1c(OCCCN2CCOCC2)ccc2c3n(c(=NC(=O)c4cnc(N)nc4)nc12)CCN3
> 10 µM: IC50 (second compound 0.00316 µM) | IC50 (second compound 0.01 µM) | IC50 (second compound 0.0316 µM) | IC50 (second compound 0.1 µM) | IC50 (second compound 0.316 µM) | IC50 (second compound 1 µM)
inactive: viability, T/C [1] 106% | viability, T/C [2] 99.3% | viability, T/C [3] 103% | viability, T/C [4] 91.7% | viability, T/C [5] 107% | viability, T/C [6] 94.7% | viability, T/C [7] 102% | viability, T/C [8] 101% | viability, T/C [9] 111% | viability, T/C [10] 95.8% | viability, T/C [11] 102% | viability, T/C [12] 87.7% | viability, T/C [13] 97% | viability, T/C [14] 87.6% | viability, T/C [15] 89.7% | viability, T/C [16] 81.2% | viability, T/C [17] 90.6% | viability, T/C [18] 88.2% | viability, T/C [19] 84.6% | viability, T/C [20] 88.7% | viability, T/C [21] 77.8% | viability, T/C [22] 95.3% | viability, T/C [23] 91.6% | viability, T/C [24] 83% | viability, T/C [25] 73.8% | viability, T/C [26] 74% | viability, T/C [27] 73.4% | viability, T/C [28] 71.7% | viability, T/C [29] 79.1% | viability, T/C [30] 67.3% | viability, T/C [31] 65.2% | viability, T/C [32] 68.7% | viability, T/C [33] 75.8% | viability, T/C [34] 62.2% | viability, T/C [35] 71% | viability, T/C [36] 64%

CC1(C)CCC(Nc2ncc(C(F)(F)F)c(-c3c[nH]c4c(P(C)(C)=O)c(C#N)ccc34)n2)CN1 (stereo not drawn) + COc1c(OCCCN2CCOCC2)ccc2c3n(c(=NC(=O)c4cnc(N)nc4)nc12)CCN3
inactive: viability, T/C [1] 91.7% | viability, T/C [2] 93.5% | viability, T/C [3] 115% | viability, T/C [4] 130% | viability, T/C [5] 147% | viability, T/C [6] 63.2% | viability, T/C [7] 101% | viability, T/C [8] 96% | viability, T/C [9] 112% | viability, T/C [10] 119% | viability, T/C [11] 140% | viability, T/C [12] 52.2% | viability, T/C [13] 85.3% | viability, T/C [14] 86.7% | viability, T/C [15] 95% | viability, T/C [16] 103% | viability, T/C [17] 125% | viability, T/C [18] 56.1% | viability, T/C [19] 79.9% | viability, T/C [20] 85.4% | viability, T/C [21] 91.7% | viability, T/C [22] 82% | viability, T/C [23] 98.5% | viability, T/C [24] 39.4% | viability, T/C [25] 69.1% | viability, T/C [26] 76.8% | viability, T/C [27] 72% | viability, T/C [28] 78.1% | viability, T/C [29] 74.3% | viability, T/C [30] 23.7% | viability, T/C [31] 57.4% | viability, T/C [32] 50.5% | viability, T/C [33] 49.8% | viability, T/C [34] 54.9% | viability, T/C [35] 44.2%
active: viability, T/C [36] 9.59%
> 10 µM: IC50 (second compound 0.00316 µM) | IC50 (second compound 0.01 µM) | IC50 (second compound 0.0316 µM)
5.48 µM: IC50 (second compound 0.316 µM)
1.4 µM: IC50 (second compound 1 µM)
7.77 µM: IC50 (second compound 0.1 µM)
